Assay results from patent US4401604A, “Process for preparing thiosulfenamide derivatives of N-phosphonomethylglycine triesters” (Monsanto Company, priority 1981, dated 1983).

Columns and labels:
Assay type in all cases: in vivo
Morningglory [1] = assay: Post-emergence herbicidal activity, greenhouse
Procedure, shortened: (§1)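 Seedlings or propagule-derived plants aged two to three weeks were sprayed post-emergence by atomizer with the test chemical in a spray holding about 0.4% by weight emulsifier. Plant injury relative to untreated controls was rated at roughly two and four weeks after treatment.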

Velvetleaf [2] = assay: Post-emergence herbicidal activity, greenhouse
Procedure, shortened: as §1

Johnsongrass [3] = assay: Post-emergence herbicidal activity, greenhouse; conditions: Table I, 4 WAT
Procedure, shortened: as §1

Soybean = assay: Post-emergence herbicidal activity, greenhouse; conditions: Table II
Procedure, shortened: as §1

Sorghum = assay: Post-emergence herbicidal activity, greenhouse; conditions: Table II
Procedure, shortened: as §1

Cocklebur [4] = assay: Post-emergence herbicidal activity, greenhouse
Procedure, shortened: as §1

Quackgrass [5] = assay: Post-emergence herbicidal activity, greenhouse; conditions: Table I, 4 WAT
Procedure, shortened: as §1

Wheat = assay: Post-emergence herbicidal activity, greenhouse; conditions: Table II
Procedure, shortened: as §1

Rice = assay: Post-emergence herbicidal activity, greenhouse; conditions: Table II
Procedure, shortened: as §1

Lambsquarters [6] = assay: Post-emergence herbicidal activity, greenhouse
Procedure, shortened: as §1

Sugar Beet = assay: Post-emergence herbicidal activity, greenhouse; conditions: Table II
Procedure, shortened: as §1

Panicum Spp = assay: Post-emergence herbicidal activity, greenhouse; conditions: Table II
Procedure, shortened: as §1

Hemp Sesbania = assay: Post-emergence herbicidal activity, greenhouse; conditions: Table II
Procedure, shortened: as §1

Downy Brome [7] = assay: Post-emergence herbicidal activity, greenhouse
Procedure, shortened: as §1

Crabgrass = assay: Post-emergence herbicidal activity, greenhouse; conditions: Table II
Procedure, shortened: as §1

Yellow Nutsedge [8] = assay: Post-emergence herbicidal activity, greenhouse; conditions: Table I, 4 WAT
Procedure, shortened: as §1

Smartweed [9] = assay: Post-emergence herbicidal activity, greenhouse
Procedure, shortened: as §1

Canada Thistle [10] = assay: Post-emergence herbicidal activity, greenhouse; conditions: Table I, 4 WAT
Procedure, shortened: as §1

Wild Buckwheat = assay: Post-emergence herbicidal activity, greenhouse; conditions: Table II
Procedure, shortened: as §1

Barnyardgrass [11] = assay: Post-emergence herbicidal activity, greenhouse
Procedure, shortened: as §1

Morningglory [12] = assay: Pre-emergent herbicidal activity; conditions: Table III; 11.2 kg/h; 2 WAT
Procedure, shortened: (§2)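 Soil-incorporated test: seeds/propagules on compacted soil, covering layer admixed with compound at known active-ingredient amount; bottom watering via pan apertures; wet sand bench, ~2 wk, ordinary sunlight; emergence counted vs untreated control → activity index from average % control.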

Velvetleaf [13] = assay: Pre-emergent herbicidal activity; conditions: Table III; 11.2 kg/h; 2 WAT
Procedure, shortened: as §2

Johnsongrass [14] = assay: Pre-emergent herbicidal activity; conditions: Table III; 11.2 kg/h; 2 WAT
Procedure, shortened: as §2

Cocklebur [15] = assay: Pre-emergent herbicidal activity; conditions: Table III; 11.2 kg/h; 2 WAT
Procedure, shortened: as §2

Quackgrass [16] = assay: Pre-emergent herbicidal activity; conditions: Table III; 11.2 kg/h; 2 WAT
Procedure, shortened: as §2

Lambsquarters [17] = assay: Pre-emergent herbicidal activity; conditions: Table III; 11.2 kg/h; 2 WAT
Procedure, shortened: as §2

Downy Brome [18] = assay: Pre-emergent herbicidal activity; conditions: Table III; 11.2 kg/h; 2 WAT
Procedure, shortened: as §2

Yellow Nutsedge [19] = assay: Pre-emergent herbicidal activity; conditions: Table III; 11.2 kg/h; 2 WAT
Procedure, shortened: as §2

Smartweed [20] = assay: Pre-emergent herbicidal activity; conditions: Table III; 11.2 kg/h; 2 WAT
Procedure, shortened: as §2

Canada Thistle [21] = assay: Pre-emergent herbicidal activity; conditions: Table III; 11.2 kg/h; 2 WAT
Procedure, shortened: as §2

Barnyardgrass [22] = assay: Pre-emergent herbicidal activity; conditions: Table III; 11.2 kg/h; 2 WAT
Procedure, shortened: as §2

COC(=O)CN(CP(=O)(Oc1ccccc1OC)Oc1ccccc1OC)SSc1cccc(C(F)(F)F)c1 [V]
post-emergence herbicidal activity index (Morningglory [1]; Table I, 5.6 kg/h, 4 WAT): 1 (25-49% control) | post-emergence herbicidal activity index (Morningglory [1]; Table I, 11.2 kg/h, 4 WAT): 2 (50-74% control) | post-emergence herbicidal activity index (Morningglory [1]; Table II, 0.28 kg/h, 2 WAT): 0 (0- 24% control) | post-emergence herbicidal activity index (Morningglory [1]; Table II, 1.12 kg/h, 4 WAT): 1 (25-49% control) | post-emergence herbicidal activity index (Morningglory [1]; Table II, 5.6 kg/h, 4 WAT): 1 (25-49% control) | post-emergence herbicidal activity index (Velvetleaf [2]; Table I, 5.6 kg/h, 4 WAT): 1 (25-49% control) | post-emergence herbicidal activity index (Velvetleaf [2]; Table I, 11.2 kg/h, 4 WAT): 0 (0- 24% control) | post-emergence herbicidal activity index (Velvetleaf [2]; Table II, 0.28 kg/h, 2 WAT): 0 (0- 24% control) | post-emergence herbicidal activity index (Velvetleaf [2]; Table II, 1.12 kg/h, 4 WAT): 0 (0- 24% control) | post-emergence herbicidal activity index (Velvetleaf [2]; Table II, 5.6 kg/h, 4 WAT): 1 (25-49% control) | post-emergence herbicidal activity index (Johnsongrass [3]; 5.6 kg/h): 1 (25-49% control) | post-emergence herbicidal activity index (Johnsongrass [3]; 11.2 kg/h): 2 (50-74% control) | post-emergence herbicidal activity index (Soybean; 0.28 kg/h, 2 WAT): 0 (0- 24% control) | post-emergence herbicidal activity index (Soybean; 1.12 kg/h, 4 WAT): 0 (0- 24% control) | post-emergence herbicidal activity index (Soybean; 5.6 kg/h, 4 WAT): 1 (25-49% control) | post-emergence herbicidal activity index (Sorghum; 0.28 kg/h, 2 WAT): 0 (0- 24% control) | post-emergence herbicidal activity index (Sorghum; 1.12 kg/h, 4 WAT): 0 (0- 24% control) | post-emergence herbicidal activity index (Sorghum; 5.6 kg/h, 4 WAT): 0 (0- 24% control) | post-emergence herbicidal activity index (Cocklebur [4]; Table I, 5.6 kg/h, 4 WAT): 2 (50-74% control) | post-emergence herbicidal activity index (Cocklebur [4]; Table I, 11.2 kg/h, 4 WAT): 3 (75-99% control) | post-emergence herbicidal activity index (Cocklebur [4]; Table II, 0.28 kg/h, 2 WAT): 0 (0- 24% control) | post-emergence herbicidal activity index (Cocklebur [4]; Table II, 1.12 kg/h, 4 WAT): 1 (25-49% control) | post-emergence herbicidal activity index (Cocklebur [4]; Table II, 5.6 kg/h, 4 WAT): 3 (75-99% control) | post-emergence herbicidal activity index (Quackgrass [5]; 5.6 kg/h): 1 (25-49% control) | post-emergence herbicidal activity index (Quackgrass [5]; 11.2 kg/h): 4 (100% control) | post-emergence herbicidal activity index (Wheat; 0.28 kg/h, 2 WAT): 0 (0- 24% control) | post-emergence herbicidal activity index (Wheat; 1.12 kg/h, 4 WAT): 1 (25-49% control) | post-emergence herbicidal activity index (Wheat; 5.6 kg/h, 4 WAT): 3 (75-99% control) | post-emergence herbicidal activity index (Rice; 0.28 kg/h, 2 WAT): 0 (0- 24% control) | post-emergence herbicidal activity index (Rice; 1.12 kg/h, 4 WAT): 0 (0- 24% control) | post-emergence herbicidal activity index (Rice; 5.6 kg/h, 4 WAT): 1 (25-49% control) | post-emergence herbicidal activity index (Lambsquarters [6]; Table I, 5.6 kg/h, 4 WAT): 3 (75-99% control) | post-emergence herbicidal activity index (Lambsquarters [6]; Table I, 11.2 kg/h, 4 WAT): 3 (75-99% control) | post-emergence herbicidal activity index (Lambsquarters [6]; Table II, 0.28 kg/h, 2 WAT): 0 (0- 24% control) | post-emergence herbicidal activity index (Lambsquarters [6]; Table II, 1.12 kg/h, 4 WAT): 3 (75-99% control) | post-emergence herbicidal activity index (Lambsquarters [6]; Table II, 5.6 kg/h, 4 WAT): 3 (75-99% control) | post-emergence herbicidal activity index (Sugar Beet; 0.28 kg/h, 2 WAT): 0 (0- 24% control) | post-emergence herbicidal activity index (Sugar Beet; 1.12 kg/h, 4 WAT): 2 (50-74% control) | post-emergence herbicidal activity index (Sugar Beet; 5.6 kg/h, 4 WAT): 2 (50-74% control) | post-emergence herbicidal activity index (Panicum Spp; 0.28 kg/h, 2 WAT): 0 (0- 24% control) | post-emergence herbicidal activity index (Panicum Spp; 1.12 kg/h, 4 WAT): 0 (0- 24% control) | post-emergence herbicidal activity index (Panicum Spp; 5.6 kg/h, 4 WAT): 1 (25-49% control) | post-emergence herbicidal activity index (Hemp Sesbania; 0.28 kg/h, 2 WAT): 0 (0- 24% control) | post-emergence herbicidal activity index (Hemp Sesbania; 1.12 kg/h, 4 WAT): 2 (50-74% control) | post-emergence herbicidal activity index (Hemp Sesbania; 5.6 kg/h, 4 WAT): 1 (25-49% control) | post-emergence herbicidal activity index (Downy Brome [7]; Table I, 5.6 kg/h, 4 WAT): 1 (25-49% control) | post-emergence herbicidal activity index (Downy Brome [7]; Table I, 11.2 kg/h, 4 WAT): 1 (25-49% control) | post-emergence herbicidal activity index (Downy Brome [7]; Table II, 0.28 kg/h, 2 WAT): 0 (0- 24% control) | post-emergence herbicidal activity index (Downy Brome [7]; Table II, 1.12 kg/h, 4 WAT): 0 (0- 24% control) | post-emergence herbicidal activity index (Downy Brome [7]; Table II, 5.6 kg/h, 4 WAT): 0 (0- 24% control) | post-emergence herbicidal activity index (Crabgrass; 0.28 kg/h, 2 WAT): 0 (0- 24% control) | post-emergence herbicidal activity index (Crabgrass; 1.12 kg/h, 4 WAT): 2 (50-74% control) | post-emergence herbicidal activity index (Crabgrass; 5.6 kg/h, 4 WAT): 3 (75-99% control) | post-emergence herbicidal activity index (Yellow Nutsedge [8]; 5.6 kg/h): 1 (25-49% control) | post-emergence herbicidal activity index (Yellow Nutsedge [8]; 11.2 kg/h): 1 (25-49% control) | post-emergence herbicidal activity index (Smartweed [9]; Table I, 5.6 kg/h, 4 WAT): 1 (25-49% control) | post-emergence herbicidal activity index (Smartweed [9]; Table I, 11.2 kg/h, 4 WAT): 2 (50-74% control) | post-emergence herbicidal activity index (Smartweed [9]; Table II, 0.28 kg/h, 2 WAT): 0 (0- 24% control) | post-emergence herbicidal activity index (Smartweed [9]; Table II, 1.12 kg/h, 4 WAT): 3 (75-99% control) | post-emergence herbicidal activity index (Smartweed [9]; Table II, 5.6 kg/h, 4 WAT): 2 (50-74% control) | post-emergence herbicidal activity index (Canada Thistle [10]; 5.6 kg/h): 0 (0- 24% control) | post-emergence herbicidal activity index (Canada Thistle [10]; 11.2 kg/h): 1 (25-49% control) | post-emergence herbicidal activity index (Wild Buckwheat; 0.28 kg/h, 2 WAT): 0 (0- 24% control) | post-emergence herbicidal activity index (Wild Buckwheat; 1.12 kg/h, 4 WAT): 0 (0- 24% control) | post-emergence herbicidal activity index (Wild Buckwheat; 5.6 kg/h, 4 WAT): 0 (0- 24% control) | post-emergence herbicidal activity index (Barnyardgrass [11]; Table I, 5.6 kg/h, 4 WAT): 3 (75-99% control) | post-emergence herbicidal activity index (Barnyardgrass [11]; Table I, 11.2 kg/h, 4 WAT): 3 (75-99% control) | post-emergence herbicidal activity index (Barnyardgrass [11]; Table II, 0.28 kg/h, 2 WAT): 0 (0- 24% control) | post-emergence herbicidal activity index (Barnyardgrass [11]; Table II, 1.12 kg/h, 4 WAT): 0 (0- 24% control) | post-emergence herbicidal activity index (Barnyardgrass [11]; Table II, 5.6 kg/h, 4 WAT): 3 (75-99% control) | pre-emergent herbicidal activity index (Morningglory [12]): 1 (25-49% control) | pre-emergent herbicidal activity index (Velvetleaf [13]): 0 (0-24% control) | pre-emergent herbicidal activity index (Johnsongrass [14]): 3 (75-100% control) | pre-emergent herbicidal activity index (Cocklebur [15]): 0 (0-24% control) | pre-emergent herbicidal activity index (Quackgrass [16]): 1 (25-49% control) | pre-emergent herbicidal activity index (Lambsquarters [17]): 0 (0-24% control) | pre-emergent herbicidal activity index (Downy Brome [18]): 2 (50-74% control) | pre-emergent herbicidal activity index (Yellow Nutsedge [19]): 0 (0-24% control) | pre-emergent herbicidal activity index (Smartweed [20]): 1 (25-49% control) | pre-emergent herbicidal activity index (Canada Thistle [21]): 2 (50-74% control) | pre-emergent herbicidal activity index (Barnyardgrass [22]): 3 (75-100% control)
